Data reported in PubChem BioAssay (NCI).
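Cultured in 96-well plates, cells were exposed to test compound for 48 hours across five concentrations. TGI is the concentration that stops growth completely.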

Tests used:
Assay in all cases: DTP human tumour cell line panel, 48 h
[1] = test system: RPMI-8226 leukemia
[2] = test system: TK-10 renal
[3] = test system: UACC-257 melanoma
[4] = test system: SK-OV-3 ovarian
[5] = test system: HCT-116 colon
[6] = test system: SK-MEL-2 melanoma
[7] = test system: NCI/ADR-RES ovarian
[8] = test system: NCI-H522 lung
[9] = test system: PC-3 prostate
[10] = test system: U251 CNS
[11] = test system: MOLT-4 leukemia
[12] = test system: SK-MEL-5 melanoma
[13] = test system: SR leukemia
[14] = test system: NCI-H23 lung
[15] = test system: A498 renal
[16] = test system: CAKI-1 renal
[17] = test system: RXF 393 renal
[18] = test system: OVCAR-3 ovarian
[19] = test system: MCF7 breast
[20] = test system: HL-60(TB) leukemia
[21] = test system: K-562 leukemia
[22] = test system: MDA-MB-435
[23] = test system: COLO 205 colon
[24] = test system: UO-31 renal
[25] = test system: IGROV1 ovarian
[26] = test system: SNB-19 CNS
[27] = test system: HOP-92 NSCLC
[28] = test system: LOX IMVI melanoma
[29] = test system: HT29 colon
[30] = test system: HCT-15 colon
[31] = test system: NCI-H226 lung
[32] = test system: CCRF-CEM leukemia
[33] = test system: HOP-62 NSCLC
[34] = test system: NCI-H460 lung
[35] = test system: HS 578T breast
[36] = test system: SN12C renal
[37] = test system: DU-145 prostate
[38] = test system: SW-620 colon
[39] = test system: BT-549 breast
[40] = test system: 786-0 renal
[41] = test system: UACC-62 melanoma
[42] = test system: SF-268 CNS
[43] = test system: M14 melanoma
[44] = test system: MDA-MB-231 breast
[45] = test system: SK-MEL-28 melanoma
[46] = test system: HCC-2998 colon
[47] = test system: SF-295 CNS
[48] = test system: OVCAR-8 ovarian
[49] = test system: EKVX NSCLC
[50] = test system: OVCAR-5 ovarian
[51] = test system: MALME-3M melanoma
[52] = test system: A549 NSCLC
[53] = test system: T-47D breast
[54] = test system: SNB-75 CNS
[55] = test system: SF-539 CNS
[56] = test system: KM12 colon
[57] = test system: ACHN renal
[58] = test system: OVCAR-4 ovarian

Compound: c1ccc2c(c1)Sc1ccccc1N2CC1CN2CCC1CC2 (stereo not drawn)
- TGI [1]: 9.99 µM
- TGI [2]: 19.3 µM
- TGI [3]: 3.48 µM
- TGI [4]: 26 µM
- TGI [5]: 12.8 µM
- TGI [6]: 9.52 µM
- TGI [7]: 24.5 µM
- TGI [8]: 16.5 µM
- TGI [9]: 17.2 µM
- TGI [10]: 14.5 µM
- TGI [11]: 16.5 µM
- TGI [12]: 7.63 µM
- TGI [13]: 7.83 µM
- TGI [14]: 26.1 µM
- TGI [15]: 24.7 µM
- TGI [16]: 21 µM
- TGI [17]: 10.2 µM
- TGI [18]: 11.9 µM
- TGI [19]: 11.2 µM
- TGI [20]: 20.3 µM
- TGI [21]: 4.72 µM
- TGI [22]: 8.7 µM
- TGI [23]: 3.12 µM
- TGI [24]: 19.4 µM
- TGI [25]: 23.2 µM
- TGI [26]: 22.6 µM
- TGI [27]: 25.2 µM
- TGI [28]: 11.5 µM
- TGI [29]: 11.2 µM
- TGI [30]: 19.6 µM
- TGI [31]: 30.2 µM
- TGI [32]: 14.3 µM
- TGI [33]: 27 µM
- TGI [34]: 11.3 µM
- TGI [35]: 26 µM
- TGI [36]: 23.7 µM
- TGI [37]: 19.4 µM
- TGI [38]: 13.5 µM
- TGI [39]: 27.8 µM
- TGI [40]: 19.1 µM
- TGI [41]: 10.5 µM
- TGI [42]: 20.9 µM
- TGI [43]: 3.36 µM
- TGI [44]: 15 µM
- TGI [45]: 4.32 µM
- TGI [46]: 2.6 µM
- TGI [47]: 29.1 µM
- TGI [48]: 27.2 µM
- TGI [49]: 24.3 µM
- TGI [50]: 24.5 µM
- TGI [51]: 3.91 µM
- TGI [52]: 22.8 µM
- TGI [53]: 8.65 µM
- TGI [54]: 9.56 µM
- TGI [55]: 21.8 µM
- TGI [56]: 17.5 µM
- TGI [57]: 22.2 µM
- TGI [58]: 20.8 µM
